Source: patent publication US5840684A, “Glycopeptide antibiotic derivatives” (Eli Lilly and Company, priority 1995, dated 1998)
≈ marks a conversion by molar mass, not a printed value.

What was measured:
[1] = system: Staphylococcus aureus S13E; assay type: cell-based
Method: (§1) The MIC's were determined using a standard broth micro-dilution assay.

[2] = system: Entercoccus faecium 180-1; assay: broth micro-dilution MIC; assay type: cell-based
Method: as §1

Entercoccus faecium 276 = assay: broth micro-dilution MIC; assay type: cell-based
Method: as §1

[3] = system: Staphylococcus aureus 489; assay: broth micro-dilution MIC; assay type: cell-based
Method: as §1

[4] = system: Staphylococcus aureus SA1199A; assay: broth micro-dilution MIC; assay type: cell-based
Method: as §1

[5] = system: Staphylococcus aureus SA1199; assay: broth micro-dilution MIC; assay type: cell-based
Method: as §1

[6] = system: Staphylococcus aureus X400; assay: broth micro-dilution MIC; assay type: cell-based
Method: as §1

[7] = system: Staphylococcus aureus X778; assay: broth micro-dilution MIC; assay type: cell-based
Method: as §1

[8] = system: Streptococcus pyogenes C203; assay: broth micro-dilution MIC; assay type: cell-based
Method: as §1

Entercoccus faecium 2041 = assay: broth micro-dilution MIC; assay type: cell-based; settings: Entercoccus faecium 2041
Method: (§2) The formula I compounds have in vitro and in vivo activity against Gram-positive pathogenic bacteria. The MIC's were determined using a standard broth micro-dilution assay.

[9] = system: Enterococcus gallinarum 245; assay: broth micro-dilution MIC; assay type: cell-based; settings: Enterococcus gallinarum 245
Method: as §2

[10] = system: Streptococcus pneumoniae P1; assay: broth micro-dilution MIC; assay type: cell-based
Method: as §2

[11] = system: vancomycin-resistant enterococci; assay: broth micro-dilution, mean geometric MIC; assay type: cell-based, Enterococcus faecium and Enterococcus faecalis; settings: enterococci, 24-hour incubation
[12] = system: vancomycin-susceptible enterococci; assay: broth micro-dilution, mean geometric MIC; assay type: cell-based, Enterococcus faecium and Enterococcus faecalis; settings: enterococci, 24-hour incubation
[13] = system: Staphylococcus aureus SA1199B; assay type: cell-based
Method: as §1

[14] = system: Staphylococcus aureus 446; assay: broth micro-dilution MIC; assay type: cell-based
Method: as §1

Entercoccus faecium 180 = assay: broth micro-dilution MIC; assay type: cell-based; settings: Entercoccus faecium 180
Method: as §2

[15] = system: Staphylococcus haemolyticus 105; assay: broth micro-dilution MIC; assay type: cell-based
Method: as §2

[16] = system: Staphylococcus haemolyticus 415; assay: broth micro-dilution MIC; assay type: cell-based
Method: as §2

[17] = system: Staphylococcus aureus 447; assay: broth micro-dilution MIC; assay type: cell-based
Method: as §1

[18] = system: Staphylococcus epidermidis 270; assay: broth micro-dilution MIC; assay type: cell-based
Method: as §2

With `CNC(CC(C)C)C(=O)NC1C(=O)NC(CC(N)=O)C(=O)NC2C(=O)NC3C(=O)NC(C(=O)NC(C(=O)O)c4cc(O)cc(O)c4-c4cc3ccc4O)C(OC3CC(C)(N)C(O)C(C)O3)c3ccc(c(Cl)c3)Oc3cc2cc(c3OC2OC(CO)C(O)C(O)C2OC2CC(C)(NCc3cccc4c([N+](=O)[O-])cccc34)C(O)C(C)O2)Oc2ccc(cc2Cl)C1O` (stereo not drawn) [Compound 25] the MIC [1] was no more than 0.06 µg/mL, the MIC [2] was no more than 0.06 µg/mL and the MIC (Entercoccus faecium 276) was 0.25 µg/mL (≈ 0.141 µM). It also gave an MIC [3] of no more than 0.06 µg/mL, an MIC [4] of no more than 0.06 µg/mL and an MIC [5] of no more than 0.06 µg/mL. For the same molecule, the MIC [6] was no more than 0.06 µg/mL, the MIC [7] was no more than 0.06 µg/mL and the MIC [8] was no more than 0.06 µg/mL. The MIC (Entercoccus faecium 2041) was 0.25 µg/mL (≈ 0.141 µM), the MIC [9] was no more than 0.06 µg/mL and the MIC [10] was no more than 0.06 µg/mL. The “mean geometric MIC, Vancomycin Resistant Strains” value [11] was 4.0 µg/mL and the “mean geometric MIC, Vancomycin Sensitive Strains” value [12] was 0.22 µg/mL.
For `CNC(CC(C)C)C(=O)NC1C(=O)NC(CC(N)=O)C(=O)NC2C(=O)NC3C(=O)NC(C(=O)NC(C(=O)O)c4cc(O)cc(O)c4-c4cc3ccc4O)C(OC3CC(C)(N)C(O)C(C)O3)c3ccc(c(Cl)c3)Oc3cc2cc(c3OC2OC(CO)C(O)C(O)C2OC2CC(C)(NCc3ccc(-c4ccc(OC)cc4)cc3)C(O)C(C)O2)Oc2ccc(cc2Cl)C1O` (stereo not drawn) [Compound 54], the MIC [1] was 0.5 µg/mL (≈ 0.28 µM), the MIC [13] was 1 µg/mL (≈ 0.559 µM) and the MIC [2] was no more than 0.06 µg/mL. The MIC (Entercoccus faecium 276) was 1 µg/mL (≈ 0.559 µM), the MIC [14] was 1 µg/mL (≈ 0.559 µM) and the MIC [3] was no more than 0.06 µg/mL. It also gave an MIC [4] of no more than 0.06 µg/mL, an MIC [5] of 0.5 µg/mL (≈ 0.28 µM) and an MIC [6] of no more than 0.06 µg/mL. For the same molecule, the MIC [7] was no more than 0.06 µg/mL, the MIC [8] was no more than 0.06 µg/mL and the MIC (Entercoccus faecium 180) was 1 µg/mL (≈ 0.559 µM). The MIC (Entercoccus faecium 2041) was no more than 0.06 µg/mL, the MIC [9] was 0.5 µg/mL (≈ 0.28 µM) and the MIC [15] was 2 µg/mL (≈ 1.12 µM). For the same molecule, the MIC [16] was 1 µg/mL (≈ 0.559 µM), the MIC [10] was no more than 0.06 µg/mL and the “mean geometric MIC, Vancomycin Resistant Strains” value [11] was 1.7 µg/mL. The “mean geometric MIC, Vancomycin Sensitive Strains” value [12] was 0.56 µg/mL.
For `CNC(CC(C)C)C(=O)NC1C(=O)NC(CC(N)=O)C(=O)NC2C(=O)NC3C(=O)NC(C(=O)NC(C(=O)O)c4cc(O)cc(O)c4-c4cc3ccc4O)C(OC3CC(C)(N)C(O)C(C)O3)c3ccc(c(Cl)c3)Oc3cc2cc(c3OC2OC(CO)C(O)C(O)C2OC2CC(C)(NCCc3ccccc3OCc3ccccc3)C(O)C(C)O2)Oc2ccc(cc2Cl)C1O` (stereo not drawn) [Compound 59], the MIC [1] was 0.125 µg/mL (≈ 0.0693 µM), the MIC [13] was 0.5 µg/mL (≈ 0.277 µM) and the MIC [2] was no more than 0.06 µg/mL. For the same molecule, the MIC (Entercoccus faecium 276) was 0.125 µg/mL (≈ 0.0693 µM), the MIC [14] was 0.5 µg/mL (≈ 0.277 µM) and the MIC [17] was 1 µg/mL (≈ 0.555 µM). The MIC [3] was 0.125 µg/mL (≈ 0.0693 µM), the MIC [4] was no more than 0.06 µg/mL and the MIC [5] was 0.125 µg/mL (≈ 0.0693 µM). For the same molecule, the MIC [7] was no more than 0.06 µg/mL, the MIC [8] was no more than 0.06 µg/mL and the MIC (Entercoccus faecium 180) was 8 µg/mL (≈ 4.44 µM). The MIC (Entercoccus faecium 2041) was 0.5 µg/mL (≈ 0.277 µM), the MIC [9] was 1 µg/mL (≈ 0.555 µM) and the MIC [18] was 1 µg/mL (≈ 0.555 µM). For the same molecule, the MIC [15] was 8 µg/mL (≈ 4.44 µM), the MIC [16] was 8 µg/mL (≈ 4.44 µM) and the MIC [10] was no more than 0.06 µg/mL. For the same molecule, the “mean geometric MIC, Vancomycin Resistant Strains” value [11] was 51 µg/mL and the “mean geometric MIC, Vancomycin Sensitive Strains” value [12] was 0.42 µg/mL.
Molecule `CNC(CC(C)C)C(=O)NC1C(=O)NC(CC(N)=O)C(=O)NC2C(=O)NC3C(=O)NC(C(=O)NC(C(=O)O)c4cc(O)cc(O)c4-c4cc3ccc4O)C(OC3CC(C)(N)C(O)C(C)O3)c3ccc(c(Cl)c3)Oc3cc2cc(c3OC2OC(CO)C(O)C(O)C2OC2CC(C)(NCc3ccc(OC(C)=O)cc3)C(O)C(C)O2)Oc2ccc(cc2Cl)C1O` (stereo not drawn) [Compound 138] has an MIC [1] of no more than 0.06 µg/mL, an MIC [13] of 0.5 µg/mL (≈ 0.287 µM) and an MIC [2] of no more than 0.06 µg/mL. For the same molecule, the MIC (Entercoccus faecium 276) was no more than 0.06 µg/mL, the MIC [17] was 2 µg/mL (≈ 1.15 µM) and the MIC [3] was no more than 0.06 µg/mL. For the same molecule, the MIC [4] was no more than 0.06 µg/mL, the MIC [5] was no more than 0.06 µg/mL and the MIC [6] was no more than 0.0606 µg/mL. The MIC [8] was no more than 0.06 µg/mL, the MIC (Entercoccus faecium 180) was 4 µg/mL (≈ 2.3 µM) and the MIC (Entercoccus faecium 2041) was no more than 0.06 µg/mL. The MIC [18] was 2 µg/mL (≈ 1.15 µM), the MIC [15] was 4 µg/mL (≈ 2.3 µM) and the MIC [16] was 8 µg/mL (≈ 4.6 µM). For the same molecule, the MIC [10] was no more than 0.06 µg/mL and the “mean geometric MIC, Vancomycin Resistant Strains” value [11] was 38 µg/mL.
`CNC(CC(C)C)C(=O)NC1C(=O)NC(CC(N)=O)C(=O)NC2C(=O)NC3C(=O)NC(C(=O)NC(C(=O)O)c4cc(O)cc(O)c4-c4cc3ccc4O)C(OC3CC(C)(N)C(O)C(C)O3)c3ccc(c(Cl)c3)Oc3cc2cc(c3OC2OC(CO)C(O)C(O)C2OC2CC(C)(NCC3CCC(c4ccccc4)C3)C(O)C(C)O2)Oc2ccc(cc2Cl)C1O` (stereo not drawn) [Compound 140] gave an MIC [1] of no more than 0.06 µg/mL, an MIC [13] of no more than 0.06 µg/mL and an MIC [2] of no more than 0.06 µg/mL. For the same molecule, the MIC (Entercoccus faecium 276) was 0.5 µg/mL (≈ 0.286 µM), the MIC [3] was no more than 0.06 µg/mL and the MIC [4] was no more than 0.06 µg/mL. For the same molecule, the MIC [5] was no more than 0.06 µg/mL, the MIC [6] was no more than 0.06 µg/mL and the MIC [8] was no more than 0.06 µg/mL. The MIC (Entercoccus faecium 180) was 1 µg/mL (≈ 0.571 µM), the MIC (Entercoccus faecium 2041) was no more than 0.06 µg/mL and the MIC [9] was 8 µg/mL (≈ 4.57 µM). The MIC [15] was 2 µg/mL (≈ 1.14 µM), the MIC [16] was 8 µg/mL (≈ 4.57 µM) and the MIC [10] was no more than 0.06 µg/mL. The “mean geometric MIC, Vancomycin Resistant Strains” value [11] was 6.7 µg/mL and the “mean geometric MIC, Vancomycin Sensitive Strains” value [12] was 0.19 µg/mL.
Work on `CNC(CC(C)C)C(=O)NC1C(=O)NC(CC(N)=O)C(=O)NC2C(=O)NC3C(=O)NC(C(=O)NC(C(=O)O)c4cc(O)cc(O)c4-c4cc3ccc4O)C(OC3CC(C)(N)C(O)C(C)O3)c3ccc(c(Cl)c3)Oc3cc2cc(c3OC2OC(CO)C(O)C(O)C2OC2CC(C)(NCc3ccccc3O)C(O)C(C)O2)Oc2ccc(cc2Cl)C1O` (stereo not drawn) [Compound 169] yielded an MIC [1] of no more than 0.06 µg/mL, an MIC [13] of 0.125 µg/mL (≈ 0.0736 µM) and an MIC [2] of no more than 0.06 µg/mL. The MIC (Entercoccus faecium 276) was no more than 0.06 µg/mL, the MIC [17] was 2 µg/mL (≈ 1.18 µM) and the MIC [3] was no more than 0.06 µg/mL. For the same molecule, the MIC [4] was no more than 0.06 µg/mL, the MIC [5] was no more than 0.06 µg/mL and the MIC [6] was no more than 0.06 µg/mL. The MIC [7] was no more than 0.06 µg/mL, the MIC [8] was no more than 0.06 µg/mL and the MIC (Entercoccus faecium 180) was 1 µg/mL (≈ 0.589 µM). For the same molecule, the MIC (Entercoccus faecium 2041) was no more than 0.06 µg/mL, the MIC [9] was 4 µg/mL (≈ 2.35 µM) and the MIC [15] was 2 µg/mL (≈ 1.18 µM). The MIC [16] was 4 µg/mL (≈ 2.35 µM), the MIC [10] was no more than 0.06 µg/mL and the “mean geometric MIC, Vancomycin Resistant Strains” value [11] was 19 µg/mL. For the same molecule, the “mean geometric MIC, Vancomycin Sensitive Strains” value [12] was 0.50 µg/mL.
In the case of `CNC(CC(C)C)C(=O)NC1C(=O)NC(CC(N)=O)C(=O)NC2C(=O)NC3C(=O)NC(C(=O)NC(C(=O)O)c4cc(O)cc(O)c4-c4cc3ccc4O)C(OC3CC(C)(N)C(O)C(C)O3)c3ccc(c(Cl)c3)Oc3cc2cc(c3OC2OC(CO)C(O)C(O)C2OC2CC(C)(NCc3ccc(-c4ccc(OC)c(OC)c4)cc3)C(O)C(C)O2)Oc2ccc(cc2Cl)C1O` (stereo not drawn) [Compound 215], the MIC [1] is reported as 2 µg/mL (≈ 1.1 µM), the MIC [13] is reported as 1 µg/mL (≈ 0.55 µM) and the MIC [2] is reported as no more than 0.06 µg/mL. It also gave an MIC (Entercoccus faecium 276) of 2 µg/mL (≈ 1.1 µM), an MIC [14] of 0.5 µg/mL (≈ 0.275 µM) and an MIC [17] of 0.5 µg/mL (≈ 0.275 µM). It also gave an MIC [3] of 2 µg/mL (≈ 1.1 µM), an MIC [4] of 0.5 µg/mL (≈ 0.275 µM) and an MIC [5] of no more than 0.06 µg/mL. The MIC [6] was 0.5 µg/mL (≈ 0.275 µM), the MIC [7] was no more than 0.06 µg/mL and the MIC [8] was no more than 0.06 µg/mL. The MIC (Entercoccus faecium 180) was no more than 0.06 µg/mL, the MIC [15] was 2 µg/mL (≈ 1.1 µM) and the MIC [16] was 1 µg/mL (≈ 0.55 µM). The MIC [10] was no more than 0.06 µg/mL and the “mean geometric MIC, Vancomycin Resistant Strains” value [11] was 2.8 µg/mL.
